From the supplement of paper PMC10307832

Experiments:
Assay in all cases: relative viability (nuclei count vs DMSO), 5 days (fraction); higher = more cells survive
XMD8-85 + Dasatinib = compound: CN1CCN(CC1)C2=CC(=C(C=C2)NC3=NC=C4C(=N3)N(C5=CC=CC=C5C(=O)N4C)C)OC [XMD8-85] + Cc1nc(Nc2ncc(C(=O)Nc3c(C)cccc3Cl)s2)cc(N2CCN(CCO)CC2)n1 [Dasatinib] (partner 0.075 µM)
Summary of the method: (§1)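 Lung cancer cell lines were seeded in 1536-well plates and dosed by pin tool the next day, with either a single drug or a fixed anchor-drug dose combined with five library-drug doses (not always all listed) spaced in √10 steps. Five days later, one step fixed the cells and stained their nuclei (final 0.05% Triton X-100, 1% formaldehyde, 1 ug/ml Hoechst), and nuclei were counted on 4× images. Relative viability is the nuclei count in treated wells divided by the count in vehicle wells, and each value is the median of duplicate plates.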

XMD8-85 + Bortezomib = compound: CN1CCN(CC1)C2=CC(=C(C=C2)NC3=NC=C4C(=N3)N(C5=CC=CC=C5C(=O)N4C)C)OC [XMD8-85] + CC(C)C[C@H](NC(=O)[C@H](Cc1ccccc1)NC(=O)c1cnccn1)B(O)O [Bortezomib] (partner 0.002 µM)
Summary of the method: as §1

4EGI-1 + Trametinib = compound: O=C(O)C(Cc1ccccc1[N+](=O)[O-])=NNc1nc(-c2ccc(Cl)c(Cl)c2)cs1 (mixture of isomers) [4EGI-1] + CC(=O)Nc1cccc(-n2c(=O)n(C3CC3)c(=O)c3c(Nc4ccc(I)cc4F)n(C)c(=O)c(C)c32)c1 [Trametinib] (partner 0.02 µM)
Summary of the method: as §1

4EGI-1 + Foretinib = compound: O=C(O)C(Cc1ccccc1[N+](=O)[O-])=NNc1nc(-c2ccc(Cl)c(Cl)c2)cs1 (mixture of isomers) [4EGI-1] + COc1cc2c(Oc3ccc(NC(=O)C4(C(=O)Nc5ccc(F)cc5)CC4)cc3F)ccnc2cc1OCCCN1CCOCC1 [Foretinib] (partner 0.25 µM)
Summary of the method: as §1

Cell Line	relative viability (XMD8-85 + Dasatinib; first compound 0.253 µM)	relative viability (XMD8-85 + Dasatinib; first compound 0.8 µM)	relative viability (XMD8-85 + Dasatinib; first compound 2.53 µM)	relative viability (XMD8-85 + Dasatinib; first compound 8 µM)	relative viability (XMD8-85 + Bortezomib; first compound 0.08 µM)	relative viability (XMD8-85 + Bortezomib; first compound 0.253 µM)	relative viability (XMD8-85 + Bortezomib; first compound 0.8 µM)	relative viability (XMD8-85 + Bortezomib; first compound 2.53 µM)	relative viability (XMD8-85 + Bortezomib; first compound 8 µM)	relative viability (4EGI-1 + Trametinib; first compound 0.5 µM)	relative viability (4EGI-1 + Trametinib; first compound 1.581 µM)	relative viability (4EGI-1 + Trametinib; first compound 5 µM)	relative viability (4EGI-1 + Trametinib; first compound 15.81 µM)	relative viability (4EGI-1 + Trametinib; first compound 50 µM)	relative viability (4EGI-1 + Foretinib; first compound 0.5 µM)	relative viability (4EGI-1 + Foretinib; first compound 1.581 µM)	relative viability (4EGI-1 + Foretinib; first compound 5 µM)	relative viability (4EGI-1 + Foretinib; first compound 15.81 µM)	relative viability (4EGI-1 + Foretinib; first compound 50 µM)	relative viability (XMD8-85 + Dasatinib; first compound 0.08 µM)
201T	0.641	0.55	0.616	0.529	1.08	1.06	1.1	1.07	0.917	0.714	0.705	0.742	0.744	0.636	1.2	0.861	1.18	0.985	0.63	
A549															1.01	0.771	0.996	0.883	0.697	
A-427	0.717	0.749	0.797	0.618	1.04	1.05	0.948	1.18	0.893	0.891		0.774	0.742	0.384	1.16	0.944	0.983	0.867	0.646	0.734
ABC-1		0.503	0.673	0.408	0.246	0.254	0.302	0.252	0.22						1.21	0.896	1.17	0.587	0.271	0.515
BEN	0.332	0.38	0.27	0.301	0.795	0.808	0.839	0.549	0.416	1.32	1.05	1.18	0.976	0.901	0.694	0.474	0.781	0.753	0.524	0.322
CAL-12T	0.363	0.431	0.447	0.225	0.979	0.95	0.864	0.964	0.584	0.348		0.358	0.281	0.191	1.11	0.857	1.08	1.07	0.589	0.374
COR-L23	0.502	0.555	0.63	0.347	1.05	0.962	1.17	0.957	0.691	0.898	0.336	0.628	0.415	0.16	1.08	0.728	0.98	0.736	0.29	0.516
COR-L 105	0.364	0.292	0.268	0.171	0.759	0.628	0.699	0.677	0.309	0.462	0.444	0.44	0.401	0.394	0.983	0.172	0.993	0.863	0.728	0.336
Calu-6					1.16	0.973	1.04	1.05	0.78						0.933	0.717	0.919	0.912	0.659	
ChaGo-K-1		0.613	0.57	0.577	0.905	1.07	1.18	1.37	0.357	0.911	0.845	0.896	0.942	0.592	0.942	0.935	0.816	0.975	0.799	0.449
EBC-1					0.551	0.472	0.434	0.297	0.329						0.0952	0.0989	0.0859	0.0982	0.103	
EKVX	0.545	0.478	0.536	0.475	1.08	1.11	1.09	1.13	1	0.436		0.351	0.239	0.268	1.08	0.121	0.925	0.686	0.815	0.518
EMC-BAC-2	0.341	0.337	0.347	0.39	1.06	1.05	1.1	1.16	0.965	0.989		0.928	0.878	0.652	1.2	0.907	1.04	0.936	0.984	0.309
EPLC-272H	0.253	0.4	0.501	0.25		0.831	0.928	0.814	0.571	0.308		0.339	0.249	0.226	0.721		0.735	1.26	0.132	0.33
H3255	0.325	0.353	0.333	0.335	0.856	0.787		0.741	0.29	0.679		0.614		0.523	0.982	0.788	0.907	0.775	0.823	0.45
HARA	0.314	0.281	0.261	0.238	1.08	1.01	1.26	1.16	0.866	0.882	0.632	0.944	0.539	0.211	0.979	0.806	0.965	0.76	0.175	0.268
HCC-15	0.632	0.614	0.656	0.417	0.948	1	1.14	1.15	0.926	0.405	0.378	0.392	0.375	0.281	1.07		1.11	0.94	0.481	0.576
HCC-44					0.938	0.911	0.816	0.962	0.679	1.04	0.948	0.994	0.921	0.507						
HCC-78	0.48	0.42	0.352	0.242	0.639	0.455	0.375	0.495	0.316	1.18		0.733	0.674	0.788	0.636		0.547	0.416	0.525	0.567
HCC-366	0.828	0.642	0.74	0.601	0.91	0.815	1.08	1.1	1.09	0.454	0.272	0.429	0.262	0.0891	0.972	0.701	0.905	0.985	0.308	0.552
HCC-827	0.33	0.34	0.439	0.457	1.16	1.1	1.05	0.978	1.02	0.575	0.458	0.611		0.505	1.07	0.889	1.05		0.339	0.403

Cell Line	relative viability (XMD8-85 + Dasatinib; first compound 0.253 µM)	relative viability (XMD8-85 + Dasatinib; first compound 0.8 µM)	relative viability (XMD8-85 + Dasatinib; first compound 2.53 µM)	relative viability (XMD8-85 + Dasatinib; first compound 8 µM)	relative viability (XMD8-85 + Bortezomib; first compound 0.08 µM)	relative viability (XMD8-85 + Bortezomib; first compound 0.253 µM)	relative viability (XMD8-85 + Bortezomib; first compound 0.8 µM)	relative viability (XMD8-85 + Bortezomib; first compound 2.53 µM)	relative viability (XMD8-85 + Bortezomib; first compound 8 µM)	relative viability (4EGI-1 + Trametinib; first compound 0.5 µM)	relative viability (4EGI-1 + Trametinib; first compound 1.581 µM)	relative viability (4EGI-1 + Trametinib; first compound 5 µM)	relative viability (4EGI-1 + Trametinib; first compound 15.81 µM)	relative viability (4EGI-1 + Trametinib; first compound 50 µM)	relative viability (4EGI-1 + Foretinib; first compound 0.5 µM)	relative viability (4EGI-1 + Foretinib; first compound 1.581 µM)	relative viability (4EGI-1 + Foretinib; first compound 5 µM)	relative viability (4EGI-1 + Foretinib; first compound 15.81 µM)	relative viability (4EGI-1 + Foretinib; first compound 50 µM)	relative viability (XMD8-85 + Dasatinib; first compound 0.08 µM)
HOP-62	0.594	0.661		0.433	0.646	0.698	0.863	0.719	0.681	0.415	0.356	0.329	0.28	0.234	1.17	0.716	1.1	1.17	0.656	0.644
IA-LM					0.814		0.836		0.163						1.25	1.04	0.966	0.663	0.0865	
LC-2-ad	0.319	0.482	0.345	0.237	1.04	0.976	0.99	0.921		0.919	0.886	0.855	0.843	0.595	0.997		1.02	0.485	0.283	0.415
LCLC-97TM1	0.813	0.856	1.01	0.87	0.473	0.357	0.841	0.72	0.204	0.212		0.188	0.197	0.127	0.926	0.725	0.941	0.936	0.127	
LCLC-103H	0.476	0.575	0.505	0.379	1.07	1.23	1.03	1.05	1.01	0.684	0.634	0.626	0.581	0.465	0.791	0.675	0.764	0.733	0.367	0.425
LK-2	0.305	0.262	0.261	0.222						0.841	0.529	0.944	0.75	0.609	1.23		1.36	1.42	0.929	
NCI-H358	0.173	0.169	0.207	0.18						0.154	0.132	0.151	0.114	0.123	0.739	0.657	0.84	0.515	0.11	0.167
NCI-H522	0.867	0.818	0.944	0.909						0.787	0.681	0.847	0.859	0.677						0.858
NCI-H1299					1.07	1.09	1.02	0.996	0.781						1.08	1.11	1.11	1.09	1.06	
NCI-H1395	0.414	0.42	0.428	0.309						1.34		1.06	1.1	0.7	1.15	0.86	1.04	0.986	0.589	0.438
NCI-H1563	0.431	0.448	0.465	0.412	0.848	0.855		0.839	0.645						0.915	0.853	0.962	0.789	0.557	0.493
NCI-H1623	0.571	0.533	0.56	0.444											0.889	0.608	0.941	0.584	0.707	0.533
NCI-H1648										0.574	0.506	0.471	0.526	0.304						
NCI-H1703					0.28	0.267	0.306	0.345	0.196						0.38	0.373	0.348	0.349	0.326	
NCI-H1793	0.403	0.404	0.413	0.338						0.49	0.431	0.414	0.407	0.273	0.645	0.948	0.686	0.443	0.33	0.384
NCI-H1944	0.228	0.204	0.223	0.203						0.481		0.354	0.314	0.334	0.894		0.974	0.782	0.655	0.203
NCI-H2170	0.562	0.526	0.564	0.548						0.956	0.773	0.876	0.866	0.645	0.951	0.958	0.74	1.01	0.582	0.574
NCI-H2342	0.316	0.32	0.32	0.331						0.894	0.802	0.881	0.98	0.906	1.15	1.06	1.2	1.05	0.831	0.296
SK-MES-1	0.366	0.44		0.255						0.582	0.559	0.568	0.541	0.418	1.04	0.955	1.03	0.521	0.824	0.296
SW 900	0.608	0.641	0.549	0.417						1.11	0.8	0.773	0.584	0.173	0.935		0.908	0.677	0.546	0.615
